This passage reports MIC results from US4207326A, “Antimicrobial quaternary pyrazole derivatives” (Cilag-Chemie A.G., priority 1979, dated 1980).

One assay has as its system E. coli. Description: Antibacterial activity: Minimum Inhibitory Concentration. To be noted: Escherichia coli, 24 hours. Format: cell-based, Escherichia coli ATCC 8739. The procedure: (§1) The antimicrobial activity was determined by inoculation of the test microorganism into suitable growth media containing solutions of the compounds at concentrations of 100, 50, 10, 5, 1.0, 0.5 and 0.1 μg/ml. The reference antibiotics used were Gentamicin for the antibacterial tests and Amphotericin B for the antimycotic and antifungal tests. After incubation the antimicrobial activity was recorded as the Minimal Inhibitory Concentration (M.I.C.), i.e., the lowest concentration preventing macroscopically visible growth, for each test compound against each organism.
(§2) An initial solution of each formula (I) compound to be tested in sterile distilled water was prepared at a concentration of 1000 μg/ml. With appropriate dilutions using sterile distilled water, additional solutions were prepared at concentrations of 500, 100, 50, 10, 5 and 1 μg/ml.
They were cultured and maintained on Tryptone Soy Agar (Oxoid CM 131), with the addition of 10% horse blood for the S. pyogenes.
To prepare the organisms as inocula for the test, slopes of this medium were streaked with the organisms and incubated at 37° C. for 24 hours. 4.5 Ml volumes of Brian-Heart Infusion Broth (Oxoid CM 225) were then inoculated with a platinum loop from the agar slope cultures and incubated for 24 hours at 37° C. The final inocula were then prepared by adding 0.1 ml aliquots of the Brain-Heart Infusion Broth cultures to 100 ml volumes of sterile physiological saline.
(a) For the test on each of the bacterial strains and each of the test and reference compounds, a series of 8 tubes containing 4.5 ml volumes of Brain-Heart Infusion Broth (Oxoid CM 225) were prepared. To 7 of these were added 0.5 ml volumes of the final solutions of the test compouns, giving final concentrations in the broths of 100, 50, 10, 5, 1.0, 0.5 and 0.1 μg/ml. To the eighth tube in each series was added 0.5 ml of the solvent used and diluted as for the preparation of the 1000 μg/ml solution of the compound. This tube was used as the growth control. The tubes were inoculated with 0.02 ml aliquots of the inocula prepared in accordance with "(a) Bacteria" above, and incubated at 37° C. for 24 hours. The tubes were then examined for evidence of bacterial growth as shown by turbidity of the medium and the lowest concentration of the test compound which prevented bacterial growth was recorded as the Minimal Inhibitory Concentration. This test procedure was carried out on two separate days.

The subject of a further assay is C. albicans. Description: Antimycotic activity: Minimum Inhibitory Concentration. Format: cell-based, Candida albicans ATCC 10231. To be noted: Candida albicans, pH 5.5, C. albicans, pH 5.5, 37° C., 72 hours, read-out: Minimum Inhibitory Concentrations. The procedure:
as §1, §2
The two species, C. albicans and C. tropicalis, were maintained on Sabouraud-Dextrose Agar (Oxoid CM41) and cultures for the preparation of the inoculum were incubated on this agar at 37° C. for 48 hours. 4.5 Ml volumes of citric acid-phosphate buffer pH 5.5 plus Yeast-Nitrogen Base (Difco 0392-15) were then inoculated from the agar cultures and incubated at 37° C. for 48 hours. 0.1 Ml aliquots of these cultures were then added to 100 ml volumes of sterile physiological saline to give the final inocula.
(§3) (b) For the tests on each of the C. albicans, C. tropicalis and C. neoformans strains and each of the test and reference compounds, a series of 8 tubes containing 4.5 ml volumes of citric acid-phosphate buffer pH 5.5 plus Yeast-Nitrogen Base (Difco 0392-15) were prepared. To 7 of these were added 0.5 ml volumes of the final solutions of the test compounds, giving final concentrations in the broths of 100, 50, 10, 5, 1.0, 0.5 and 0.1 μg/ml. To the eighth tube in each series was added 0.5 ml of the solvent used and diluted as for the preparation of the 1000 μg/ml solution of the compound. This tube was used as the growth control. The tubes were then inoculated with 0.1 ml aliquots of the inocula prepared as in "(b) Fungi" above. The tubes inoculated with the C. albicans and C. tropicalis were inoculated at 37° C. for 72 hours and the tubes inoculated with the C. neoformans straim were incubated at 30° C. for 72 hours. […] The tubes were then examined for evidence of growth as shown by turbidity of the medium and the lowest concentration of the test compound which prevented fungal growth was recorded as the Minimal Inhibitory Concentration. This test procedure was carried out on two separate days.

A further assay deals with S. schenkii. Description: Antifungal activity: Minimum Inhibitory Concentration. Format: cell-based, Sporotrichon schenkii NCPF 3182. To be noted: S. schenkii, 27° C., one week, read-out: Minimum Inhibitory Concentration. The procedure: as §1, §2
(§4) The A. corymbifera, A. fumigatus, S. schenkii, T. rubrum, T. mentagrophytes, M. canis and P. verrucosa strains were all maintained on Sabouraud-Dextrose Agar (Oxoid CM 41) by incubating for 14 days at 27° C. To prepare the inocula 30 ml volumes of Sabouraud-Liquid medium (Oxoid CM 147) were inoculated from the agar cultures and incubated at 27° C. until heavy uniform growth resulted. The mycelial growth was then broken up by shaking with glass beads.
(§5) 1 Ml aliquots were removed from each of the cultures for the purpose of making viable counts and the cultures were then held at 4° C. The viable counts were made by preparing serial ten-fold dilutions of the cultures in sterile physiological saline and spreading on plates of Sabouraud-Dextrose Agar (Oxoid CM 41) which were then incubated at 27° C. for 14 days. When the viable counts had confirmed that each of the inocula contained approximately 10^6 colony forming units (C.F.U.) per ml the cultures were withdrawn from the refrigerator and used as the inocula for the tests.
(§6) (c) For the tests on each of the remaining seven strains and each of the test and reference compounds, a series of 8 tubes containing 4.5 ml volumes of Sabouraud-Liquid Medium (Oxoid CM 147) were prepared. To 7 of these were added 0.5 ml volumes of the final solutions of the test compounds, giving final concentrations in the broths of 100, 50, 10, 5, 1.0, 0.5 and 0.1 μg/ml. To the eighth tube in each series was added 0.5 ml of the solvent used and diluted as for the preparation of the 500 μg/ml solution of the compound. This tube was used as a growth control. The tubes were then inoculated with 0.1 ml aliquots of the inocula prepared as in "(b) Fungi" above. The tubes were then incubated at 27° C. with continuous shaking for a period of one week. The tubes were then examined for evidence of growth as shown by the presence of mycelial growth in the medium and the lowest concentration of the test compound which prevented fungal growth was recorded as the Minimal Inhibitory Concentration. This test procedure was carried out on two separate days.

A further assay deals with C. neoformans. Description: Antimycotic activity: Minimum Inhibitory Concentration. Format: cell-based, Cryptococcus neoformans NCPF 3184. To be noted: Cryptococcus neoformans, pH 5.5, C. neoformans, pH 5.5, 30° C., 72 hours, read-out: Minimum Inhibitory Concentrations. The procedure:
as §1, §2
The C. neoformans was also maintained on Sabouraud-Dextrose Agar (Oxoid CM 41), but in this case cultures for the preparation of the inoculum were incubated on this agar at 30° C. for 48 hours. A 4.5 ml volume of citric acid-phosphate buffer pH 5.5 plus Yeast-Nitrogen Base (Difco-0392-15) was then inoculated from the agar culture and incubated at 30° C. for 48 hours. A 0.1 ml aliquot of this culture was then added to 100 ml sterile physiological saline to give the final inoculum.
as §3

A further assay concerns A. corymbifera. Description: Antifungal activity: Minimum Inhibitory Concentration. To be noted: Lichtheimia corymbifera, A. corymbifera, 27° C., one week, read-out: Minimum Inhibitory Concentration. Format: cell-based, Absidia corymbifera NCPF 2001. The procedure:
as §1, §2
A. corymbifera NCPF 2001
as §4, §5, §6

Like-named read-outs stand apart in the source and are kept apart here.

Turning to `CCCCCCCCCCCCCC[n+]1c(C)cc(C)n1Cc1ccc([N+](=O)[O-])cc1.[Br-]` [Example 6-D, 3,5-dimethyl-2(4-nitrobenzyl)-1-tetradecyl-pyrazolium bromide], the MIC was 50 µg/mL against E. coli (Day 1, 37° C.); 100 µg/mL in the assay with E. coli (Day 2, 37° C.); 10 µg/mL in the assay on C. albicans (Day 1); 5 µg/mL in the assay with C. albicans (Day 2); 5 µg/mL with S. schenkii (Day 1); 5 µg/mL with S. schenkii (Day 2). For the same compound, the MIC with C. neoformans (Day 1) was 0.5 µg/mL; in the assay on C. neoformans (Day 2), 0.5 µg/mL; with A. corymbifera (Day 1), 50 µg/mL; in the assay with A. corymbifera (Day 2) it was 50 µg/mL.

Consider `CCCCCCCCCCCCCCn1ccc[n+]1C` [Example 3-G, 2-methyl-1-tetradecyl-pyrazolium methosulfate], for which the MIC against E. coli (Day 1, 37° C.) is 10 µg/mL; against E. coli (Day 2, 37° C.), 10 µg/mL; in the assay with C. albicans (Day 1), 5 µg/mL; in the assay on C. albicans (Day 2), 5 µg/mL; with S. schenkii (Day 1) it was 5 µg/mL; in the assay with S. schenkii (Day 2), 10 µg/mL. Further, the MIC in the assay with C. neoformans (Day 1) was found to be 1 µg/mL; with C. neoformans (Day 2), 1 µg/mL; in the assay on A. corymbifera (Day 1), 10 µg/mL; in the assay with A. corymbifera (Day 2), 10 µg/mL.

`CCCCCCCCCCCCCCCCn1ccc[n+]1C` [Example 3-D, 1-hexadecyl-2-methyl-pyrazolium methosulfate]: the MIC stood at 10 µg/mL against E. coli (Day 1, 37° C.); 5 µg/mL in the assay on E. coli (Day 2, 37° C.); 1 µg/mL in the assay with C. albicans (Day 1); 1 µg/mL in the assay on C. albicans (Day 2); 5 µg/mL with S. schenkii (Day 1); 10 µg/mL in the assay with S. schenkii (Day 2). The MIC in the assay on C. neoformans (Day 1) came to 5 µg/mL; in the assay on C. neoformans (Day 2), 1 µg/mL; with A. corymbifera (Day 1), 10 µg/mL; with A. corymbifera (Day 2), 5 µg/mL.

`CCCCCCCCCCCCn1c(C)cc(C)[n+]1C` [Example 1, 1-dodecyl-2,3,5-trimethyl-pyrazolium methosulfate]: the MIC is 50 µg/mL with E. coli (Day 1, 37° C.); 100 µg/mL against E. coli (Day 2, 37° C.); 10 µg/mL in the assay with C. albicans (Day 1); 50 µg/mL in the assay on C. albicans (Day 2); 50 µg/mL in the assay on S. schenkii (Day 1); 10 µg/mL in the assay with S. schenkii (Day 2). The MIC was 0.5 µg/mL in the assay with C. neoformans (Day 1), 0.5 µg/mL with C. neoformans (Day 2), greater than 100 µg/mL in the assay on A. corymbifera (Day 1) and greater than 100 µg/mL with A. corymbifera (Day 2).

In the case of `CCCCCCCCCCCC[n+]1c(C)cc(C)n1Cc1ccc(Cl)cc1.[Br-]` [Example 6-E, 2-(p-chlorobenzyl)-3,5-dimethyl-1-dodecyl-pyrazolium bromide], the MIC worked out at 10 µg/mL in the assay with E. coli (Day 1, 37° C.); 10 µg/mL in the assay with E. coli (Day 2, 37° C.); 1 µg/mL with C. albicans (Day 1); 5 µg/mL with C. albicans (Day 2); 5 µg/mL in the assay with S. schenkii (Day 1); 1 µg/mL with S. schenkii (Day 2). Besides, the MIC in the assay on C. neoformans (Day 1) worked out at 0.5 µg/mL; with C. neoformans (Day 2), 0.5 µg/mL; with A. corymbifera (Day 1) it was 10 µg/mL; in the assay with A. corymbifera (Day 2), 50 µg/mL.
